Measured values from patent publication US8927601B2, “Uses of N-butylidenephthalide in treating a liver injury and improving liver function” (National Dong Hwa University, priority 2011, dated 2015).
“Also recorded” adds a separate entry of the source.

What was measured:
[1] = system: alcoholic-induced liver cirrhosis; details: patients with alcoholic-induced liver cirrhosis; cited from earlier work
angina = details: conscious rats; cited from earlier work
[2] = system: TAA induced fibrotic livers; assay: Thioacetamide (TAA)-induced chronic liver fibrosis rat model: liver function index in blood (GOT, GPT, total bilirubin, albumin, prothrombin time); assay type: in vivo, Wistar rats
Method: (§1) 5 ml/kg of thioacetamide (TAA) was injected intraperitoneally into Wistar rats every three days for eight weeks to induce the liver damage. The therapy was performed starting from the fifth week during the thioacetamide induction. 80 mg/Kg/day or 500 mg/Kg/day of n-BP were orally administrated in experimental rats for four weeks.
(§2) To establish the chronic liver fibrosis model in rat, adult male Wistar rats (320±20 g) were used and were intraperitoneally injected with 200 mg/kg TAA (Sigma-Aldrich) once every 3 days for 8 weeks as the liver fibrosis model (78 rats). In the Normal group (24 rats), normal saline was used in place of the TAA. At the end of 4, 6, 8, and 10 weeks (i.e., day 28, 42, 56, and 70 respectively), these rats were sacrificed and cardiac blood samples were collected. These samples were analyzed with a biochemical analyzer (Integra 800; Roche, Holliston, Mass., USA) to measure the liver function index, which included glutamate oxaloacetate transaminase (GOT), glutamate pyruvate transaminase (GPT), serum albumin, total bilirubin and prothrombin time.
(§3) 78 rats with TAA induced fibrotic livers were randomly divided into 4 groups. For group 1 (TAA group), there were 24 rats which received no therapy. The remaining […] were divided into three groups: Control group, n-BP treated group I (BP 80 mg/kg group) and n-BP treated group II (BP 500 mg/kg group). For these three groups, from the beginning of week 5 to the end of week 8, olive oil, n-BP (80 mg/Kg/day), and n-BP (500 mg/Kg/day) were orally administrated once per day to the rats, wherein the dosage was 1 ml of olive oil per kilogram body weight (Control group), 1 ml of 80 mg/ml n-BP olive oil solution per kilogram body weight (BP 80 mg/kg group), and 1 ml of 500 mg/ml n-BP olive oil solution per kilogram of body weight (BP 500 mg/kg group), respectively. n-BP was purchased from Alfa Aesar®, cat. A10353.
(§4) At the end of 6, 8, and 10 weeks, rats of each group were sacrificed and cardiac blood samples were collected. These samples were analyzed with a biochemical analyzer (Integra 800; Roche, Holliston, Mass., USA) to measure the liver function index, which included glutamate oxaloacetate transaminase (GOT), glutamate pyruvate transaminase (GPT), serum albumin, and prothrombin time. Afterwards, the histopathology of liver tissue samples obtained from the sacrificed rats was also analyzed. Liver tissue samples were fixed in 3.7% formaldehyde and then embedded in paraffin. Serial 3-μm sections of the embedded tissues were stained with hematoxylin and eosin or Masson's trichrome as described above.

[3] = system: TAA induced fibrotic livers; assay: Thioacetamide (TAA)-induced chronic liver fibrosis rat model: gross examination and histopathology (H&E, Masson's trichrome, Metavir score); assay type: in vivo, Wistar rats
Method: as §1, §2
Afterwards, the histopathology of liver tissue samples obtained from the sacrificed rats were also analyzed. Liver tissue samples were fixed in 3.7% formaldehyde and then embedded in paraffin. Serial 3-μm sections of the embedded tissues were stained with hematoxylin and eosin or Masson's trichrome. Liver fibrosis is the excessive accumulation of collagen in liver, and therefore the accumulation of collagen is an important index for evaluating liver fibrosis. Masson's trichrome stain is frequently used to identify increases in collagenous tissue in fibrotic liver. For Masson's trichrome stain, sectioned samples were placed in Bouin's solution (Sigma-Aldrich) at 56° C. for 1 h and then were stained sequentially with the following solutions: Mayer's hematoxylin solution (Sigma-Aldrich) for 5 min, Biebrich scarlet-acid fuchsin solution (Sigma-Aldrich) for 15 min, phosphomolybdic acid-phosphotungstic acid (Sigma-Aldrich) for 15 min, and aniline blue (Sigma-Aldrich) for 5 min.
as §3, §4

[4] = both n-BP treated groups, end of week 10

Row | Structure (SMILES) | mortality [1] | antianginal effect (angina) | effect on blood pressure or heart rate (angina) | serum total bilirubin level ([2]; both n-BP treated groups, end of week 6 (two weeks after treatments) continuing to end of week 10) | prothrombin time [2, 4] | serum GOT level [2, 4] | serum GPT level [2, 4] | serum total bilirubin level versus Control group [2, 4] | prothrombin time ([2]; both n-BP treated groups, from the end of week 6) | liver function index including GOT, GPT, albumin, total bilirubin and prothrombin time, versus control group ([2]; n-BP 80 or 500 mg/Kg/day oral for four weeks) | serum albumin level ([2]; n-BP treated groups, end of week 10) [g/dL] | albumin level ([2]; n-BP treated groups, ends of week 6 and week 8) | gross examination of the liver ([3]; BP 80 mg/kg group (No. 73, 78) and BP 500 mg/kg group (No. 81, 87)) | inflammatory activity scores (Metavir) ([3]; n-BP 80 or 500 mg/Kg/day oral) | fibrosis grade (Metavir), Masson's trichrome staining ([3]; n-BP 80 or 500 mg/Kg/day oral, weeks 5-8, on 42, 56 and 70 days, control group grade 3-4) | fibrosis score versus control group (olive oil) ([3]; n-BP 80 or 500 mg/Kg/day oral, 42, 56 and 70 days) | collagen accumulation in liver (Masson's trichrome staining) ([3]; n-BP 80 or 500 mg/Kg/day oral, 42, 56 and 70 days (weeks 6, 8, 10)) | liver damage in hematoxylin and eosin stained sections ([3]; n-BP 80 or 500 mg/Kg/day oral, end of 8 weeks and 10 weeks) | inflammation and accumulation of collagen fibers (histopathological examinations) ([3]; therapy groups, n-BP 80 or 500 mg/Kg/day oral for four weeks)
1 | CC(=O)CCCCn1c(=O)c2c(ncn2C)n(C)c1=O [Pentoxifylline] | significantly reduce the mortality | – | – | – | – | – | – | – | – | – | – | – | – | – | – | – | – | – | –
2 | CCCC=C1OC(=O)c2ccccc21 [n-BP, n-butylidenephthalide] | – | relieves angina | without affecting blood pressure or the heart rate | decline at the end of week 6 | decreased to approach that of the Normal group | decline to near-normal values | decline to near-normal values | significantly lower | decreases | significant recovery of liver damage | 4.35 ± 0.47 | rises | become even better like normal liver morphology | improvement in the recovery of the damaged liver occurs 2 weeks after n-BP treatment | 1-2 | lower | Collagen degradation was found; also recorded: almost no collagen accumulation | recovery from tissue degeneration and vacuolation was evident | significantly reduced
